Assay results from patent US20250230193A1, “CYCLIC COMPOUND HAVING SELECTIVE KRAS INHIBITORY EFFECT ON HRAS AND NRAS” (CHUGAI SEIYAKU KABUSHIKI KAISHA, priority 2022, published 2025).
Where a SMILES comes first, the peptide text is derived from it. Bridges are numbered along the chain shown (N, C = ends). [ ]: non-standard residue; d: D form. The star is where a group is joined. hPhe(3-Cl-4-CF3) = N[C@@H](CCc1ccc(C(F)(F)F)c(Cl)c1)C(=O)O; NPrPhe(4-CF3) = CCCN[C@@H](Cc1ccc(C(F)(F)F)cc1)C(=O)O; NMeGly(cPent) = CN[C@H](C(=O)O)C1CCCC1; NMeD = CN[C@@H](CC(=O)O)C(=O)O; NMeL = CN[C@@H](CC(C)C)C(=O)O; Azetidin(1-yl) = C1CN(*)C1; NMeA = CN[C@@H](C)C(=O)O; Ac5c = NC1(C(=O)O)CCCC1; Aze = O=C(O)[C@@H]1CCN1; Sar = CNCC(=O)O

What was measured:
[1] = biological target: GDP-bound NRAS wild-type protein (Homo sapiens, UniProt P01111); assay: Binding to NRAS by surface plasmon resonance (SPR), Single Cycle Kinetics
[2] = biological target: GDP-bound HRAS wild-type protein (Homo sapiens, UniProt P01112); assay: Binding to HRAS by surface plasmon resonance (SPR), Single Cycle Kinetics
[3] = KD ratio, GDP-bound NRAS wild-type vs GDP-bound KRAS wild-type, SPR
[4] = KD ratio, GDP-bound HRAS wild-type vs GDP-bound KRAS wild-type, SPR
[5] = SPR, GDP-bound NRAS wild-type vs GDP-bound KRAS wild-type
[6] = SPR, GDP-bound HRAS wild-type vs GDP-bound KRAS wild-type

Sequence of GDP-bound HRAS wild-type protein (P01112 whole entry): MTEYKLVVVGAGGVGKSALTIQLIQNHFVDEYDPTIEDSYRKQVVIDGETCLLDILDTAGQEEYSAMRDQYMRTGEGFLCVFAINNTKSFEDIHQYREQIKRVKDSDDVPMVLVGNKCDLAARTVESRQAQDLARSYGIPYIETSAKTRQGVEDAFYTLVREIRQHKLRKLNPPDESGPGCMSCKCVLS
Sequence of GDP-bound NRAS wild-type protein (P01111 whole entry): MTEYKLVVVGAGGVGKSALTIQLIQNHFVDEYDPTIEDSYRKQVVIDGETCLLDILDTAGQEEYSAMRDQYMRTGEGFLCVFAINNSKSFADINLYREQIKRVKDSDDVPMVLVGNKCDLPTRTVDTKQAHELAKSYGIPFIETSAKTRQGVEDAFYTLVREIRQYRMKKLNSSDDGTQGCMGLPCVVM

## CCC[C@H]1C(=O)N[C@@H](C2CCCC2)C(=O)N(C)CC(=O)N(C)[C@H]2C/C=C\CCN(C2=O)[C@@H](Cc2ccc(C(F)(F)F)cc2)C(=O)N(C)CC(=O)N[C@@H](CCc2ccc(C(F)(F)F)c(Cl)c2)C(=O)N2CC3(CC3)C[C@H]2C(=O)NC2(CC(C)(C)C2)C(=O)N(C)[C@@H](C2CCCC2)C(=O)N(C)[C@H](C(=O)N(C)C)CC(=O)N1C [PP2986]
[1]; KD ratio NRAS/KRAS, SPR, GDP-bound wild-type proteins
  NRAS/KRAS (ratio of KD value with respect to GDP-bound NRAS wild-type protein to KD value with respect to KRAS): AA (a compound having 20 or more is denoted as AA)
[2]; KD ratio HRAS/KRAS, SPR, GDP-bound wild-type proteins
  HRAS/KRAS (ratio of KD value with respect to GDP-bound HRAS wild-type protein to KD value with respect to KRAS): A (a compound having 10 or more and less than 20 is denoted as A)

## CCCN1C(=O)[C@@H]2CCN2C(=O)[C@H](C)N(C)C(=O)[C@H]([C@@H](C)CC)NC(=O)[C@H](CC(C)C)N(C)C(=O)C[C@@H](C(=O)N2CCC2)N(C)C(=O)[C@H](C2CCCC2)N(C)C(=O)C2(CCCC2)NC(=O)[C@@H]2CCCN2C(=O)[C@H](CCc2ccc(C(F)(F)F)c(Cl)c2)NC(=O)CN(C)C(=O)[C@@H]1Cc1ccc(C(F)(F)F)cc1 [PP0181] ([NMeL]I[NMeA][Aze][NPrPhe(4-CF3)][Sar][hPhe(3-Cl-4-CF3)]P[Ac5c][NMeGly(cPent)][NMeD]-{Azetidin(1-yl)}; lactam N-11)
[1]; KD ratio NRAS/KRAS, SPR
  NRAS/KRAS (ratio of KD for GDP-bound NRAS wild-type to KD for KRAS): C (A compound having a KD ratio of 0.1 or more and less than 3 is denoted as C)
[2]; KD ratio HRAS/KRAS, SPR
  HRAS/KRAS (ratio of KD for GDP-bound HRAS wild-type to KD for KRAS): B (a compound having 3 or more and less than 10 is denoted as B)

## CCO[C@@H]1C[C@H]2C(=O)NC3(CCCC3)C(=O)N(C)[C@@H](C3CCCC3)C(=O)N(C)[C@H](C(=O)N3CCOCC3)CC(=O)N(C)[C@@H](COC)C(=O)N[C@@H]([C@@H](C)CC)C(=O)N3CC[C@H]3C(=O)N(C)[C@H]3CCCCCN(C3=O)[C@@H](Cc3ccc(C(F)(F)F)cc3)C(=O)N(C)CC(=O)N[C@@H](CCc3cc(F)c(C(F)(F)F)c(F)c3)C(=O)N2C1 [PP0867]
[1]; [3]
  NRAS/KRAS (ratio of KD value with respect to NRAS to KD value with respect to KRAS): B (a compound having 3 or more and less than 10 is denoted as B)
[2]; [4]
  HRAS/KRAS (ratio of KD value with respect to HRAS to KD value with respect to KRAS): B (a compound having 3 or more and less than 10 is denoted as B)

## C#CC[C@H]1C(=O)N[C@@H]([C@@H](C)CC)C(=O)N(C)CC(=O)N(C)[C@H]2C/C=C\CCN(C2=O)[C@@H](Cc2ccc(C(F)(F)F)cc2)C(=O)N(C)CC(=O)N[C@@H](CCc2ccc(C(F)(F)F)c(OC)c2)C(=O)N2CCOC[C@H]2C(=O)NC2(CC(C)(C)C2)C(=O)N(C)[C@@H](C2CCCC2)C(=O)N(C)[C@H](C(=O)N(C)C)CC(=O)N1C [PP2905]
[1]; KD ratio NRAS/KRAS, class symbols
  NRAS/KRAS (ratio of KD value with respect to GDP-bound NRAS wild-type protein to KD value with respect to KRAS): AA (a compound having 20 or more is denoted as AA)
[2]; KD ratio HRAS/KRAS, class symbols
  HRAS/KRAS (ratio of KD value with respect to GDP-bound HRAS wild-type protein to KD value with respect to KRAS): A (a compound having 10 or more and less than 20 is denoted as A)

## CC[C@H](C)[C@@H]1NC(=O)[C@H](CC(C)C)N(C)C(=O)C[C@@H](C(=O)N2CCOCC2)N(C)C(=O)[C@H](C2CCCC2)N(C)C(=O)C2(CCC2)NC(=O)[C@@H]2C[C@@H](O)CN2C(=O)[C@H](CCc2cc(F)c(C(F)(F)F)c(F)c2)NC(=O)CN(C)C(=O)[C@H](Cc2ccc(C(F)(F)F)cc2)N2CCCCC[C@@H](C2=O)N(C)C(=O)CN(C)C1=O [PP0871]
[1]; [3]
  NRAS/KRAS (ratio of KD value with respect to NRAS to KD value with respect to KRAS): B (a compound having 3 or more and less than 10 is denoted as B)
[2]; [4]
  HRAS/KRAS (ratio of KD value with respect to HRAS to KD value with respect to KRAS): B (a compound having 3 or more and less than 10 is denoted as B)

## CCCOC[C@H]1C(=O)N[C@@H]([C@@H](C)CC)C(=O)N(C)CC(=O)N(C)[C@H]2C/C=C\CCN(C2=O)[C@@H](Cc2ccc(C)cc2)C(=O)N(C)CC(=O)N[C@@H](CCc2cc(F)c(C(F)(F)F)c(F)c2)C(=O)N2C[C@H](CCC)C[C@H]2C(=O)NC2(CC(C)(C)C2)C(=O)N(C)[C@@H](C2CCCC2)C(=O)N(C)[C@H](C(=O)N(C)C)CC(=O)N1C [PP2203]
[1]; [5]
  NRAS/KRAS (ratio of KD value with respect to NRAS to KD value with respect to KRAS): A (a compound having 10 or more and less than 20 is denoted as A)
[2]; [6]
  HRAS/KRAS (ratio of KD value with respect to HRAS to KD value with respect to KRAS): A (a compound having 10 or more and less than 20 is denoted as A)

## CCO[C@@H]1C[C@H]2C(=O)NC3(CCC3)C(=O)N(C)[C@@H](C3CCCC3)C(=O)N(C)[C@H](C(=O)N(C)C)CC(=O)N(C)[C@@H](CC3CCCC3)C(=O)N[C@@H]([C@@H](C)CC)C(=O)N(C)CC(=O)N(C)[C@H]3CCCCN(C3=O)[C@@H](Cc3ccc(C(F)(F)F)cc3)C(=O)N(C)CC(=O)N[C@@H](CCc3cc(F)c(C(F)(F)F)c(F)c3)C(=O)N2C1 [PP0700]
[1]; KD ratio NRAS/KRAS, SPR
  NRAS/KRAS (ratio of KD value with respect to GDP-bound NRAS wild-type protein to KD value with respect to KRAS): C (A compound having a KD ratio of 0.1 or more and less than 3 is denoted as C)
[2]; KD ratio HRAS/KRAS, SPR
  HRAS/KRAS (ratio of KD value with respect to GDP-bound HRAS wild-type protein to KD value with respect to KRAS): B (a compound having 3 or more and less than 10 is denoted as B)

## CCO[C@@H]1C[C@H]2C(=O)NC3(CC(C)(C)C3)C(=O)N(C)[C@@H](C3CCCC3)C(=O)N(C)[C@H](C(=O)N(C)C)CC(=O)N(C)[C@@H](COC)C(=O)N[C@@H]([C@@H](C)CC)C(=O)N(C)CC(=O)N(C)[C@H]3C/C=C\CCN(C3=O)[C@@H](Cc3ccc(C)cc3)C(=O)N(C)CC(=O)N[C@@H](CCc3ccc(C(F)(F)F)c(Cl)c3)C(=O)N2C1 [PP2389]
[1]; [5]
  NRAS/KRAS (ratio of KD value with respect to NRAS to KD value with respect to KRAS): A (a compound having 10 or more and less than 20 is denoted as A)
[2]; [6]
  HRAS/KRAS (ratio of KD value with respect to HRAS to KD value with respect to KRAS): B (a compound having 3 or more and less than 10 is denoted as B)

## CC[C@H](C)[C@@H]1NC(=O)[C@H](CC(C)C)N(C)C(=O)C[C@@H](C(=O)N(C)C)N(C)C(=O)[C@H](C2CCCC2)N(C)C(=O)C2(CCCC2)NC(=O)[C@@H]2C[C@H](C)CN2C(=O)[C@H](CCc2cc(F)c(C(F)(F)F)c(F)c2)NC(=O)CN(C)C(=O)[C@H](Cc2ccc(C(F)(F)F)cc2)N2CC/C=C\C[C@@H](C2=O)N(C)C(=O)CN(C)C1=O [PP2268]
[1]; [5]
  NRAS/KRAS (ratio of KD value with respect to NRAS to KD value with respect to KRAS): A (a compound having 10 or more and less than 20 is denoted as A)
[2]; [6]
  HRAS/KRAS (ratio of KD value with respect to HRAS to KD value with respect to KRAS): A (a compound having 10 or more and less than 20 is denoted as A)

## CCO[C@@H]1C[C@H]2C(=O)NC3(CCC3)C(=O)N(C)[C@@H](C3CCCC3)C(=O)N(C)[C@H](C(=O)N(C)C)CC(=O)N(C)[C@@H](Cc3ccc(Cl)c(Cl)c3)C(=O)N[C@@H]([C@@H](C)CC)C(=O)N(C)CC(=O)N(C)[C@H]3CCCCCN(C3=O)[C@@H](Cc3ccc(F)cc3)C(=O)N(C)CC(=O)N[C@@H](CCc3cc(F)c(C(F)(F)F)c(F)c3)C(=O)N2C1 [PP1158]
[1]; [3]
  NRAS/KRAS (ratio of KD value with respect to NRAS to KD value with respect to KRAS): B (a compound having 3 or more and less than 10 is denoted as B)
[2]; [4]
  HRAS/KRAS (ratio of KD value with respect to HRAS to KD value with respect to KRAS): B (a compound having 3 or more and less than 10 is denoted as B)

## CCO[C@@H]1C[C@H]2C(=O)NC3(CC(F)(F)C3)C(=O)N(C)[C@@H](C3CCCC3)C(=O)N(C)[C@H](CC)CC(=O)N(C)[C@@H](CC)C(=O)N[C@@H]([C@@H](C)CC)C(=O)N(C)CC(=O)N(C)[C@H]3C/C=C\CCN(C3=O)[C@@H](Cc3ccc(C(F)(F)F)cc3)C(=O)N(C)CC(=O)N[C@@H](CCc3cc(F)c(C(F)(F)F)c(F)c3)C(=O)N2C1 [PP1627]
[1]; [3]
  NRAS/KRAS (ratio of KD value for NRAS to KD value for KRAS): A (a compound having 10 or more and less than 20 is denoted as A)
[2]; [4]
  HRAS/KRAS (ratio of KD value for HRAS to KD value for KRAS): A (a compound having 10 or more and less than 20 is denoted as A)
